Source: patent US20240165152A1, “COMPOSITIONS AND METHODS FOR ACTIVATING NK CELLS” (The Regents of the University of California, priority 2017, published 2024)

Key:
OSCSCs = experiment: Cell death (PI staining) of OSCSCs differentiated with NK supernatants after chemotherapeutic drugs; format: cell-based, human
Procedure: FIG. 67A-FIG. 67B show CDDP or Paclitaxel with and without NAC induce significant cell death in OSCSCs differentiated with NK-supernatants and not in poorly-differentiated tumors. Highly purified NK cells were treated with the combination of IL-2 (1000 U/mL) and anti-CD16 mAb ([…]) for 18 hours, after which the NK supernatants were added to OSCSCs in the presence of anti-TNF-a (1:100) and anti-IFN-g (1:100) for a period of 5 days. Thereafter, OSCSCs were detached and treated with/without Cisplatin for 18-24 hours. The viability of OSCSCs was then determined using PI staining and flow cytometric analysis. One of 3 representative experiments is shown in this figure (FIG. 67A). OSCSCs were treated with the supernatants from NK cells as described in FIG. 67A. Afterwards, tumors were detached and treated with/without NAC ([…]) for 24 hours, followed by treatment with Paclitaxel for 18-24 hours. OSCSCs viability was determined by PI staining and flow cytometric analysis. One of 3 representative experiments is shown in this figure (FIG. 67B).
Staining was performed by labeling the cells with antibodies or propidium iodide, as described previously. The cells were washed twice with ice-cold PBS containing 1% BSA. Predetermined optimal concentrations of specific human monoclonal antibodies were added to 1×10^4 cells in 50 pl of cold-BSA and cells were incubated on ice for 30 min. Thereafter cells were washed in cold PBS-BSA and brought to 500 pl with PBS-BSA. For cell death assay 1×10^4 cells in 50 pl of cold-BSA were stained with 8 µg/ml propidium iodide and cells were incubated on ice for 10 min, and brought to 500 pl with PBS-BSA. Flow cytometry analysis was performed using Beckman 485 Coulter Epics XL cytometer (Brea, CA) and results were analyzed in FlowJo vX software (Ashland, OR).
NK cells were treated with a combination of anti-CD16 monoclonal antibody (3 pg/mL) and IL-2 (1,000 U/mL) for 18 hours before supernatants were removed and used for differentiation experiments. The amounts of IFN-y produced by activated NK cells were measured with IFN-γ ELISA (Biolegend, CA, USA). […]

OSCCs = experiment: Cell death of OSCCs after chemotherapeutic drugs; format: cell-based, human; conditions: patient-derived differentiated oral tumor

Compound	cell death of OSCSCs differentiated with NK supernatants (OSCSCs)	cell death of OSCCs (OSCCs)
[NH2][Pt]([NH2])([Cl])[Cl] [CDDP, Cisplatin]	significant susceptibility	higher cell death
CC(=O)N[C@@H](CS)C(=O)O [NAC]	significantly increased	
CC(=O)O[C@H]1C(=O)[C@@]2(C)[C@H]([C@H](OC(=O)c3ccccc3)[C@]3(O)C[C@H](OC(=O)[C@H](O)[C@@H](NC(=O)c4ccccc4)c4ccccc4)C(C)=C1C3(C)C)[C@]1(OC(C)=O)CO[C@@H]1C[C@@H]2O [paclitaxel]	higher cell death	
